Assay results: ChEMBL document CHEMBL1201862, “PubChem BioAssay data set” (2004)
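Where inhibition never reached the appropriate level, the endpoint shown equals the highest concentration tested. Otherwise, values were interpolated linearly from a five-concentration, 48-hour dose response in 96-well plates. The concentration for 50% growth inhibition is given as GI50.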 Active and inactive are the calls of the source. Rule as the data show it: active = GI50 up to about 1.1 µM and inactive = higher.

Columns and labels:
Test in all cases: NCI-60 cell line screen, 48 h
RPMI-8226 = test system: RPMI-8226
TK-10 = test system: TK-10
SNB-75 = test system: SNB-75
EKVX = test system: EKVX
OVCAR-4 = test system: OVCAR-4
M14 = test system: M14
OVCAR-3 = test system: OVCAR-3
HCT-15 = test system: HCT-15
CAKI-1 = test system: CAKI-1
SNB-19 = test system: SNB-19
LOX IMVI = test system: LOX IMVI
PC-3 = test system: PC-3
NCI-H226 = test system: NCI-H226
HOP-62 = test system: HOP-62
OVCAR-5 = test system: OVCAR-5
HOP-92 = test system: HOP-92
ACHN = test system: ACHN
OVCAR-8 = test system: OVCAR-8
MDA-MB-231 = test system: MDA-MB-231
NCI-H460 = test system: NCI-H460
UO-31 = test system: UO-31
SF-295 = test system: SF-295
HCT-116 = test system: HCT-116
UACC-62 = test system: UACC-62
HT-29 = test system: HT-29
NCI-H522 = test system: NCI-H522
HCC 2998 = test system: HCC 2998
NCI-H23 = test system: NCI-H23
NCI/ADR-RES = test system: NCI/ADR-RES
MCF7 = test system: MCF7
RXF 393 = test system: RXF 393
SN12C = test system: SN12C
DU-145 = test system: DU-145
MOLT-4 = test system: MOLT-4
KM12 = test system: KM12
BT-549 = test system: BT-549
U-251 = test system: U-251
MDA-N = test system: MDA-N
HL-60 = test system: HL-60
SK-MEL-28 = test system: SK-MEL-28
T47D = test system: T47D
SK-OV-3 = test system: SK-OV-3
IGROV-1 = test system: IGROV-1
A498 = test system: A498
Hs-578T = test system: Hs-578T
MDA-MB-435 = test system: MDA-MB-435
SW-620 = test system: SW-620
SK-MEL-5 = test system: SK-MEL-5
SK-MEL-2 = test system: SK-MEL-2
A549 = test system: A549
COLO 205 = test system: COLO 205
786-0 = test system: 786-0
UACC-257 = test system: UACC-257
SF-539 = test system: SF-539
SF-268 = test system: SF-268
SR = test system: SR
K562 = test system: K562
Malme-3M = test system: Malme-3M

In the case of `O=C(CN1C(=O)c2ccccc2C1=O)C(O)CN1C(=O)c2ccccc2C1=O` (centres undefined), the GI50 (RPMI-8226) is reported as > 100 µM (inactive), the GI50 (TK-10) is reported as 46.1 µM (inactive) and the GI50 (SNB-75) is reported as 16 µM (inactive). For the same molecule, the GI50 (EKVX) was 76.2 µM (inactive), the GI50 (OVCAR-4) was 98.4 µM (inactive) and the GI50 (M14) was > 100 µM (inactive). The GI50 (OVCAR-3) was > 100 µM (inactive), the GI50 (HCT-15) was 92.5 µM and the GI50 (CAKI-1) was > 100 µM (inactive). The GI50 (SNB-19) was 50.7 µM (inactive), the GI50 (LOX IMVI) was 92.3 µM (inactive) and the GI50 (PC-3) was > 100 µM (inactive). The GI50 (NCI-H226) was 73.8 µM (inactive), the GI50 (HOP-62) was 17.9 µM (inactive) and the GI50 (OVCAR-5) was > 100 µM (inactive). The GI50 (HOP-92) was 32.4 µM (inactive), the GI50 (ACHN) was 20 µM (inactive) and the GI50 (OVCAR-8) was 46.5 µM (inactive). The GI50 (MDA-MB-231) was 22.5 µM (inactive), the GI50 (NCI-H460) was > 100 µM (inactive) and the GI50 (UO-31) was 73.3 µM (inactive). For the same molecule, the GI50 (SF-295) was 31.3 µM (inactive), the GI50 (HCT-116) was > 100 µM (inactive) and the GI50 (UACC-62) was > 100 µM (inactive). For the same molecule, the GI50 (HT-29) was > 100 µM (inactive), the GI50 (NCI-H522) was > 100 µM (inactive) and the GI50 (HCC 2998) was > 100 µM (inactive). For the same molecule, the GI50 (NCI-H23) was 26.9 µM (inactive), the GI50 (NCI/ADR-RES) was > 100 µM (inactive) and the GI50 (MCF7) was > 100 µM (inactive). For the same molecule, the GI50 (RXF 393) was 34.4 µM (inactive), the GI50 (SN12C) was 53.5 µM (inactive) and the GI50 (DU-145) was 47.2 µM (inactive). For the same molecule, the GI50 (MOLT-4) was > 100 µM (inactive), the GI50 (KM12) was 84.1 µM (inactive) and the GI50 (BT-549) was 48.1 µM (inactive). For the same molecule, the GI50 (U-251) was 29.1 µM (inactive), the GI50 (MDA-N) was > 100 µM (inactive) and the GI50 (HL-60) was 44.7 µM (inactive). For the same molecule, the GI50 (SK-MEL-28) was > 100 µM (inactive), the GI50 (T47D) was 93.5 µM (inactive) and the GI50 (SK-OV-3) was 27.9 µM (inactive). For the same molecule, the GI50 (IGROV-1) was 43.7 µM (inactive), the GI50 (A498) was 87.1 µM (inactive) and the GI50 (Hs-578T) was 34.7 µM (inactive). For the same molecule, the GI50 (MDA-MB-435) was 34.1 µM (inactive), the GI50 (SW-620) was > 100 µM (inactive) and the GI50 (SK-MEL-5) was > 100 µM (inactive). For the same molecule, the GI50 (SK-MEL-2) was > 100 µM (inactive), the GI50 (A549) was > 100 µM (inactive) and the GI50 (COLO 205) was > 100 µM (inactive). For the same molecule, the GI50 (786-0) was 28 µM (inactive), the GI50 (UACC-257) was > 100 µM (inactive) and the GI50 (SF-539) was 33.2 µM (inactive). The GI50 (SF-268) was 23.5 µM (inactive) and the GI50 (SR) was > 100 µM (inactive).

`C[N+](C)(C)CCN[N+]1(C)CCCc2ccccc21` (centres undefined) was tested, and the GI50 (RPMI-8226) was 32.8 µM (inactive), the GI50 (TK-10) was > 100 µM (inactive) and the GI50 (SNB-75) was > 100 µM (inactive). The GI50 (EKVX) was > 100 µM (inactive), the GI50 (OVCAR-4) was > 100 µM (inactive) and the GI50 (M14) was > 100 µM (inactive). For the same molecule, the GI50 (OVCAR-3) was > 100 µM (inactive), the GI50 (HCT-15) was over 100 µM and the GI50 (CAKI-1) was > 100 µM (inactive). For the same molecule, the GI50 (SNB-19) was > 100 µM (inactive), the GI50 (LOX IMVI) was > 100 µM (inactive) and the GI50 (PC-3) was > 100 µM (inactive). The GI50 (NCI-H226) was 54.1 µM (inactive), the GI50 (HOP-62) was > 100 µM (inactive) and the GI50 (OVCAR-5) was > 100 µM (inactive). The GI50 (HOP-92) was > 100 µM (inactive), the GI50 (ACHN) was > 100 µM (inactive) and the GI50 (OVCAR-8) was > 100 µM (inactive). The GI50 (MDA-MB-231) was > 100 µM (inactive), the GI50 (NCI-H460) was > 100 µM (inactive) and the GI50 (UO-31) was > 100 µM (inactive). For the same molecule, the GI50 (SF-295) was > 100 µM (inactive), the GI50 (HCT-116) was 52 µM (inactive) and the GI50 (UACC-62) was > 100 µM (inactive). For the same molecule, the GI50 (HT-29) was > 100 µM (inactive), the GI50 (NCI-H522) was 18.5 µM (inactive) and the GI50 (HCC 2998) was > 100 µM (inactive). For the same molecule, the GI50 (NCI-H23) was > 100 µM (inactive), the GI50 (NCI/ADR-RES) was > 100 µM (inactive) and the GI50 (MCF7) was > 100 µM (inactive). For the same molecule, the GI50 (RXF 393) was 36 µM (inactive), the GI50 (SN12C) was > 100 µM (inactive) and the GI50 (DU-145) was > 100 µM (inactive). For the same molecule, the GI50 (K562) was 39 µM (inactive), the GI50 (MOLT-4) was 31 µM (inactive) and the GI50 (KM12) was > 100 µM (inactive). For the same molecule, the GI50 (BT-549) was > 100 µM (inactive), the GI50 (U-251) was 52.1 µM (inactive) and the GI50 (MDA-N) was > 100 µM (inactive). The GI50 (HL-60) was 0.67 µM (active), the GI50 (SK-MEL-28) was > 100 µM (inactive) and the GI50 (T47D) was 36.5 µM (inactive). The GI50 (SK-OV-3) was > 100 µM (inactive), the GI50 (Malme-3M) was 23 µM (inactive) and the GI50 (IGROV-1) was > 100 µM (inactive). The GI50 (A498) was 17.7 µM (inactive), the GI50 (Hs-578T) was > 100 µM (inactive) and the GI50 (MDA-MB-435) was > 100 µM (inactive). For the same molecule, the GI50 (SW-620) was 38.5 µM (inactive), the GI50 (SK-MEL-5) was > 100 µM (inactive) and the GI50 (SK-MEL-2) was > 100 µM (inactive). The GI50 (A549) was > 100 µM (inactive), the GI50 (COLO 205) was 36.2 µM (inactive) and the GI50 (786-0) was 33.3 µM (inactive). The GI50 (UACC-257) was > 100 µM (inactive), the GI50 (SF-539) was 4.92 µM (inactive) and the GI50 (SF-268) was > 100 µM (inactive). For the same molecule, the GI50 (SR) was 50.2 µM (inactive).
